Assay results published in article PMC6367362, “MD001, a Novel Peroxisome Proliferator-activated Receptor α/γ Agonist, Improves Glucose and Lipid Metabolism” (Scientific Reports, 2019).

Key:
human HA-PPARγ = target: T1, human HA-PPARγ (Homo sapiens, UniProt P37231); assay: PPRE luciferase activity assay in HEK293 cells transfected with HA-PPARγ; type: cell-based; parameters: transcriptional activity of PPARγ: dose or concentration left out as unconfirmed; settings: HEK293, PPRE-pk-Luc
T1 construct: expressed in transfected cells; host or cells: HEK293
T1 sequence (P37231 1-505): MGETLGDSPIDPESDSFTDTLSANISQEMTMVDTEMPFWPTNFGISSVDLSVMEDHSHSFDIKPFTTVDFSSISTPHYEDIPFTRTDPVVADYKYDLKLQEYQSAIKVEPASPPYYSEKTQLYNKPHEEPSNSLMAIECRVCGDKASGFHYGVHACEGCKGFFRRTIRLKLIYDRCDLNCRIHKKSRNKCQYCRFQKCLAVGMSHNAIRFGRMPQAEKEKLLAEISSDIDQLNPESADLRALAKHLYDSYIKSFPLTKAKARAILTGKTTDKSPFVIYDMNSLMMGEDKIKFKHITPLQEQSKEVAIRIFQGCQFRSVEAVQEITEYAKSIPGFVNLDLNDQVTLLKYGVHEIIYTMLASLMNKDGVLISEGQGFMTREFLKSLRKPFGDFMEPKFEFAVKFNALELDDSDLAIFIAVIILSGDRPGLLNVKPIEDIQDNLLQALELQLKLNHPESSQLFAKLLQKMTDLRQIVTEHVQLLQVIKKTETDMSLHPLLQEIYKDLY
Procedure: Figure 2 MD001 induces the expression of target genes through PPARα and PPARγ activation. HEK293 cells were transiently co-transfected with human HA-PPARα (A) and HA-PPARγ (B) expression vectors along with the reporter plasmid (PPRE-pk-Luc) or control reporter plasmid (pk-Luc) with Renilla vector for 24 h. Cells were treated with MD001 (10 μM), rosiglitazone (rosi) (10 μM) or WY14643 (WY) (10 μM) for 24 h. Luciferase activity was normalised to Renilla luciferase activity as described in the Methods section. **, vs. vehicle. (C) HepG2 cells were treated with MD001 (10 μM) for 24 h, and total RNA was isolated and synthesised into cDNA. Relative expression was quantitated using qRT-PCR. **, vs. vehicle. (D,E) HepG2 cells were transfected with control siRNA, PPARα siRNA (D), or PPARγ siRNA (E) for 48 h and treated with vehicle, WY14643 (10 μM), rosiglitazone (10 μM) or MD001 (10 μM) for 24 h. Subsequently, cells were harvested for total RNA isolation. Relative expression of target genes was quantitated using qRT-PCR. ^#, vs. control siRNA; ^‡, vs. control siRNA/vehicle; ^§, vs. control siRNA/WY; * and **, vs. control siRNA/MD001. Data represent the mean ± SD of three independent experiments. *P < 0.05, **P < 0.01, ^#P < 0.01, ^‡P < 0.01, and ^§P < 0.01.
For transient transfection, cells were transfected with plasmid DNA constructs by polyethylenimine (PEI, Polysciences, Inc., Warrington, PA, USA) according to the manufacturer’s instructions. Transcription activity assays of PPARα and PPARγ in HEK293 cells were performed by co-transfection of HA-PPARα, HA-PPARγ, and peroxisome proliferator-response element (PPRE) reporter plasmid (PPRE-pk-Luc) or control reporter plasmid (pk-Luc) with Renilla vector for 24 h. […] Luciferase activity was measured with the Dual-Luciferase Reporter Assay System (Promega, Madison, WI, USA) and quantified using GloMax (Promega, USA) according to the manufacturer’s protocol. […]
Luciferase activity was measured as described in the Methods section. […]

[1] = tested on: differentiated C2C12 myotubes; assay: In vitro glucose consumption assay, C2C12 myotubes; type: cell-based, mouse; settings: 10, 50 μM, 24 h
Procedure: Figure 3 MD001 promotes glucose consumption by induction of GLUT expression. HepG2 (A), differentiated 3T3-L1 adipocytes (B), and differentiated C2C12 myotubes (C) were treated with vehicle, MD001 (10, 50 μM), or rosiglitazone (rosi, 10 μM) for 24 h; glucose consumption was examined as described in the Methods section. Cells were harvested for total RNA isolation. Relative expression levels of GLUT2 (D) and GLUT4 (E,F) were quantitated using qRT-PCR. *, **, and ^† vs. vehicle. Data represent the mean ± SD of three independent experiments. *P < 0.05, **P < 0.01, and ^†P < 0.01.
The glucose consumption assay was performed as previously described. Briefly, cells were treated with MD001 or rosiglitazone […]. The conditioned medium from cultured cells was harvested and assayed for glucose content using a Glucose Colorimetric Assay Kit II (BioVision Inc., Milpitas, CA, USA).

SMILES: Cc1c(O)cc(O)c2c(-c3ccccc3)c(C(=O)/C=C/c3ccccc3)c(=O)oc12 [MD001]
- transcription via PPARγ activation (luciferase activity) (human HA-PPARγ; 10 μM, 24 h, vs. vehicle): significantly increased
- transcriptional activity of PPARγ (human HA-PPARγ; 24 h (Supplementary Fig. S2)): promoted simultaneous transcriptional activity
- glucose consumption [1]: significantly increased glucose consumption in a dose-dependent manner
